Test results: patent US6352996B1, “Liposomal prodrugs comprising derivatives of camptothecin and methods of treating cancer using these prodrugs” (priority 1999, dated 2002)
Where two headings read alike, the source gives them in different places.

What was measured:
U-937 cells = experiment: Growth inhibition of U-937 cells treated with CPT esters; assay type: cell-based; conditions: 0.2 μM, 120 hr, percent of exponential growth of untreated cells (100%), mean of four estimates
Method: Growth inhibition of U-937 cells treated with various CPT esters.
Each identified compound was added to reach a culture of U-937 cell having a final concentration of 0.2 μM. The treatment time was for 120 hr. Growth inhibition in each of the treated cultures was then estimated as a percent of the exponential growth of the cells that was considered 100%. Each estimate was the mean value of four estimates.

CLO breast carcinoma = experiment: Human breast carcinoma CLO xenograft in nude mice; assay type: in vivo; conditions: 8 mg/kg intramuscular twice a week, day 55 (FIG. 16)
From the text: Swiss nude mice of the NIH high fertility strain were bred and maintained pathogen-free in a laboratory. (Giovanella, B. C. and Stehlin, J. S. “Heterotransplantation of human malignant tumors in ‘nude’ thymusless mice. I. Breeding and maintenance of ‘nude’ mice.” J. Natl. Cancer Inst. 51: 615-619; 1973.)
Human malignant carcinomas of the colon, breast, lung, ovary, stomach, pancreas, bladder, prostate, osteosarcoma and malignant melanomas were heterotransplanted directly from patients into the nude mice and passaged serially. In particular, the tumors CLO, MUR, CAS, SW 48, SQU and BRO as described in Giovanella, B. C., Stehlin, J. S., Shepard, R. C. and Williams, L. J. “Correlation between response to chemotherapy of human tumors in patients and in nude mice.” Cancer 52: 1146-1152; 1983, tumor SCH as described in Heim, S., Mandahl, N., Arheden, K., Giovanella, B. C., Yim, S. O., Stehlin, J. S., Jr. and Mitebman, F. “Multiple karyotypic abnormalities including structural rearrangements of 11P in cell lines from malignant melanomas.” Cancer Genet. Cytogent, 35:5-20; 1988, and Verschraegen, C., Ciovanella, B. C., Mendoza, J. T., Kozielski, A. J. and Stehlin, J. S., Jr. “Specific organ metastases of human melanoma cells injected into the arterial circulation of nude mice.” Anticancer Res., In Press, and tumor PC-3 as described in Invest. Urol. 17, 16-23, 1979, were used. […]

human tumor xenografts [1] = test system: human tumor xenografts
human tumor xenografts [2] = conditions: in mice; cited from earlier work
human malignancies = experiment: Clinical responses in Phase I clinical trial patients; assay type: in vivo; conditions: in humans
[3] = Closed lactone form in human plasma after oral administration; conditions: for % present as closed lactone form in human blood/plasma: after oral administration (FIGS. 2, 4, 5, 7, 8)
[4] = Closed lactone form in plasma of mice after intrastomach administration; assay type: in vivo; conditions: after i.s. administration, mouse (FIG. 3)
[5] = mouse liver homogenate, 2 μg SF6A/ml, 37° C.
Method: Determination of SF6A (Prodrug 2) and CPT in liver homogenate.
Mouse liver was homogenized in 4 volumes of ice-cold 0.15 M KCl with the aid of a Dounce homogenizer, then centrifuged at 15000 G for 10 min to remove particulate material. The supernatant, designated as liver homogenate, was transferred into a capped polypropylene tube, mixed with 2 μg SF6A/ml and incubated in a 37° C. water-bath. At the desired times, samples were removed and mixed with 4 volumes of ice-cold ethanol to precipitate proteins. The samples were stored at −20° C. until all were collected. Following centrifugation at 15000 G for 10 min, the clarified supernatants were subjected to analysis for determination of SF6A and CPT lactones by high pressure liquid chromatography (HPLC). The compounds were detected by fluorescence spectroscopy setting the excitation and emission wavelengths at 347 nm and 418 nm, respectively. CPT and SF6A have characteristic retention times of 3.5 min and 13.5 min, respectively.

[6] = Stability of lactone form in human plasma; assay type: in vitro ADME; conditions: for Percent in plasma (lactone, percent of the initial lactone amount added): 1 μg/ml
Method: CPT or SF6A lactone was added to human plasma (1 μg/ml) and an incubation and lactone determination were made as described in Example 15. The lactone amount at each time-point was detected after removing the carboxylate form, and subsequently was calculated as percent of the initial lactone amount added. The results shown in this Table below were derived from one of the three independent experiments performed using different incubation times. The pattern of quantitation of the lactones was similar in all three experiments.

[7] = Changes of body weights of mice during the test time period (toxicity); assay type: in vivo; conditions: nude mice
From the text: The preferred derivatives display significant antitumor activity with much lower toxicity than their parent camptothecin, CPT. The animal experimental data for these new derivatives were collected. Camptothecin 20(S) propioniate (where R1 is ethyl and R2 is H) is designated as Prodrug 2 and taken as a example to disclose some in vivo experimental data. FIG. 6 represents the antitumor activity of this compound in different doses against the implanted human breast carcinoma (CLO) in nude mice. The change of body weight of mice is recorded with the time.

Q: For `CC[C@@]1(OC(C)=O)C(=O)OCc2c1cc1n(c2=O)Cc2cc3ccccc3nc2-1` [CPT-acetate], which Growth % (U-937 cells) is on record?
A: 92 ± 4%

Q: With `CC=CC(=O)OC1(CC)C(=O)OCc2c1cc1n(c2=O)Cc2cc3ccccc3nc2-1` (stereo not drawn) [Compound IB, Camptothecin 20-O crotonate] as the compound, how does the tumor size (CLO breast carcinoma) read?
A: actually reducing the tumor size

Q: Which tumor size (CLO breast carcinoma) does the source give for `CCC1(OC(=O)C2OC2C)C(=O)OCc2c1cc1n(c2=O)Cc2cc3ccccc3nc2-1` (stereo not drawn) [Compound IC, Camptothecin 20-O-2′, 3′-epoxy-butyrate] here?
A: stabilize the tumor size after a certain amount of time

Q: For `CC[C@@]1(O)C(=O)OCc2c1cc1n(c2=O)Cc2cc3c([N+](=O)[O-])cccc3nc2-1` [Example 9NC, 9-nitrocamptothecin, reference compound], which complete tumor regressions (human tumor xenografts [1]; in mice) is on record?
A: 32/32

Q: What about the “potency relative to CPT against human tumor xenografts” value (human tumor xenografts [2]) of the same compound?
A: 2-3 times

Q: What about the complete tumor regressions (human malignancies) of the same compound?
A: 2/32

Q: And the “% present as closed lactone form in human blood/plasma” value [3]?
A: ~3%

Q: And the “drug present in plasma in the closed lactone form” value ([3]; oral administration to Phase I clinical trial patients, on average (FIGS. 4 and 5))?
A: ~3%

Q: And the “drug present in the plasma in the closed lactone form” value [4]?
A: 57%

Q: Which Growth % (U-937 cells) does the source give for `CCC(=O)O[C@]1(CC)C(=O)OCc2c1cc1n(c2=O)Cc2cc3ccccc3nc2-1` [Prodrug 2, Camptothecin 20-O-propionate] here?
A: 31 ± 2%

Q: And the “Amount determined: CPT (formed from SF6A)” value (from here on “Amount determined: CPT”) ([5]; incubation 0 min)?
A: 0.00 µg/mL

Q: What about the “Amount determined: SF6A” value ([5]; incubation 0 min) of the same compound?
A: 1.95 µg/mL

Q: What about the “Amount determined: CPT” value ([5]; incubation 10 min) of the same compound?
A: 0.00 µg/mL

Q: What about the “Amount determined: SF6A” value ([5]; incubation 10 min) of the same compound?
A: 2.06 µg/mL

Q: What about the “Amount determined: CPT” value ([5]; incubation 60 min) of the same compound?
A: 0.00 µg/mL

Q: And the “Amount determined: SF6A” value ([5]; incubation 60 min)?
A: 2.05 µg/mL

Q: And the “Amount determined: CPT” value ([5]; incubation 6 hr)?
A: 0.00 µg/mL

Q: And the “Amount determined: SF6A” value ([5]; incubation 6 hr)?
A: 2.05 µg/mL

Q: And the “Amount determined: CPT” value ([5]; incubation 24 hr)?
A: 0.47 µg/mL

Q: And the “Amount determined: SF6A” value ([5]; incubation 24 hr)?
A: 0.96 µg/mL

Q: What about the “Amount determined: CPT” value ([5]; incubation 48 hr) of the same compound?
A: 0.30 µg/mL

Q: And the “Amount determined: SF6A” value ([5]; incubation 48 hr)?
A: 0.90 µg/mL

Q: What about the toxicity (human tumor xenografts [1]; mice) of the same compound?
A: exceptional lack of toxicity, even at enormous doses in mice

Q: What about the “antitumor activity against xenografts of human tumors” value (human tumor xenografts [1]; nude mice) of the same compound?
A: exhibits antitumor activity against human tumor xenografts

Q: And the “Lactone % in Human Plasma” value ([6]; Time 0 Hr)?
A: 100%

Q: What about the “Lactone % in Human Plasma” value ([6]; Time 1 Hr) of the same compound?
A: 86%

Q: And the “Lactone % in Human Plasma” value ([6]; Time 2 Hr)?
A: 77%

Q: What about the “Lactone % in Human Plasma” value ([6]; Time 4 Hr) of the same compound?
A: 68%

Q: And the “Lactone % in Human Plasma” value ([6]; Time 6 Hr)?
A: 56%

Q: And the “time the lactone ring remained intact, versus CPT” value ([6]; human plasma)?
A: much longer

Q: And the “Percent in plasma (lactone, percent of the initial lactone amount added)” value (“Percent in plasma” for short) ([6]; human plasma, incubation time 0.0 hr)?
A: 100.0%

Q: What about the “Percent in plasma” value ([6]; human plasma, incubation time 1.0 hr) of the same compound?
A: 86.0%

Q: What about the “Percent in plasma” value ([6]; human plasma, incubation time 2.0 hr) of the same compound?
A: 77.0%

Q: And the “Percent in plasma” value ([6]; human plasma, incubation time 4.0 hr)?
A: 68.0%

Q: And the “Percent in plasma” value ([6]; human plasma, incubation time 6.0 hr)?
A: 56.0%

Q: And the “Percent in plasma” value ([6]; human plasma, incubation time 27.0 hr)?
A: 9.0%

Q: What about the “% present as closed lactone form in human blood/plasma” value [3] of the same compound?
A: 2.8%

Q: And the “increase of lactone share over the parent compound” value ([3]; human, oral administration, versus CPT or 9NC)?
A: sevenfold

Q: What about the Body weight ([7]; dose 5 mg/kg, day 21) of the same compound?
A: 21/33 gms

Q: And the Body weight ([7]; dose 5 mg/kg, day 27)?
A: 27/33.7 gms

Q: What about the Body weight ([7]; dose 5 mg/kg, day 34) of the same compound?
A: 34/34.3 gms

Q: And the Body weight ([7]; dose 5 mg/kg, day 41)?
A: 41/33.5 gms

Q: And the Body weight ([7]; dose 5 mg/kg, day 48)?
A: 48/32.9 gms

Q: And the Body weight ([7]; dose 5 mg/kg, day 56)?
A: 56/33.2 gms

Q: What about the Body weight ([7]; dose 6 mg/kg, day 21) of the same compound?
A: 21/32.9 gms

Q: And the Body weight ([7]; dose 6 mg/kg, day 27)?
A: 27/33.4 gms

Q: And the Body weight ([7]; dose 6 mg/kg, day 34)?
A: 34/33.8 gms

Q: And the Body weight ([7]; dose 6 mg/kg, day 41)?
A: 41/33.5 gms

Q: What about the Body weight ([7]; dose 6 mg/kg, day 48) of the same compound?
A: 48/34.0 gms

Q: What about the Body weight ([7]; dose 6 mg/kg, day 56) of the same compound?
A: 56/32.2 gms

Q: What about the Body weight ([7]; dose 7 mg/kg, day 21) of the same compound?
A: 21/30.8 gms

Q: And the Body weight ([7]; dose 7 mg/kg, day 27)?
A: 27/31.7 gms

Q: And the Body weight ([7]; dose 7 mg/kg, day 34)?
A: 34/30.6 gms

Q: And the Body weight ([7]; dose 7 mg/kg, day 41)?
A: 41/31.1 gms

Q: What about the Body weight ([7]; dose 7 mg/kg, day 48) of the same compound?
A: 48/31.6 gms

Q: And the Body weight ([7]; dose 7 mg/kg, day 56)?
A: 56/31.5 gms

Q: What about the Body weight ([7]; dose 8 mg/kg, day 21) of the same compound?
A: 21/32.9 gms

Q: What about the Body weight ([7]; dose 8 mg/kg, day 27) of the same compound?
A: 27/34.1 gms

Q: And the Body weight ([7]; dose 8 mg/kg, day 34)?
A: 34/34.0 gms

Q: And the Body weight ([7]; dose 8 mg/kg, day 41)?
A: 41/33.4 gms

Q: What about the Body weight ([7]; dose 8 mg/kg, day 48) of the same compound?
A: 48/33.9 gms

Q: And the Body weight ([7]; dose 8 mg/kg, day 56)?
A: 56/33.2 gms

Q: And the “change of body weight of mice during the test time period” value ([7]; doses 5-8 mg/kg)?
A: no losses of mice body weights
